Where a SMILES comes first, the peptide text is derived from it. Where no end group is shown, it is not given here. The star is where a group is joined. AMC = Cc1cc(=O)oc2cc(N*)ccc12; Cbz = O=C(OCc1ccccc1)*
What was measured:
Format in all cases: biochemical
[1] = molecular target: T1, yrEnCL3 (EnCL3, E. nipponicum cathepsin L3) (Eudiplozoon nipponicum, UniProt A0A0K1L960); assay: fluorogenic peptidase inhibition assay (AMC release); conditions: read-out: % remaining activity at 10 uM
T1 construct: Pichia pastoris X-33 (pPICZalpha B), His-tag; full transcript 368 residues
T1 sequence (A0A0K1L960 entry or part of it): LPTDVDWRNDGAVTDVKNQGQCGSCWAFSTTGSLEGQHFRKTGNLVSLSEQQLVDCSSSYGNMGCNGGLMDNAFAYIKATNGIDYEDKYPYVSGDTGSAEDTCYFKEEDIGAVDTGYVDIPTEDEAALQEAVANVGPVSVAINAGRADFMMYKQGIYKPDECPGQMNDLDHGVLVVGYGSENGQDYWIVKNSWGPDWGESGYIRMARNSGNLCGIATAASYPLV

[2] = molecular target: T2, yrEnCL1 (EnCL1, E. nipponicum cathepsin L1) (Eudiplozoon nipponicum, UniProt A0A0K1L8K1); assay: as above; conditions: read-out: % remaining activity at 10 uM
T2 construct: Expressed as pro-enzyme in Pichia pastoris X-33 (pPICZalpha B), His-tag, self-processed in medium to ~28 kDa partially processed form, partially purified; full transcript 317 residues
T2 sequence (A0A0K1L8K1 entry or part of it): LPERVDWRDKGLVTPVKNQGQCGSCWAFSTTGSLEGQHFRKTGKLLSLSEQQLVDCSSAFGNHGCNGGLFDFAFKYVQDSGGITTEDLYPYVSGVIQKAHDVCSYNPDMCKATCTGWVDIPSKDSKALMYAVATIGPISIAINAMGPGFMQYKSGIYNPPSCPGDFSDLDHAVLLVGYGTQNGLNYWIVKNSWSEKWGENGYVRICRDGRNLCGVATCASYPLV

[3] = molecular target: T2, yrEnCL1 (EnCL1, E. nipponicum cathepsin L1); assay: fluorogenic AMC release; conditions: 50 uM substrate, 2 mM DTT, citrate/phosphate buffer, pH optimum 5.5, 28 °C; partially purified enzyme
[4] = molecular target: T1, yrEnCL3 (EnCL3, E. nipponicum cathepsin L3); assay: fluorogenic AMC release; conditions: 50 uM substrate, 2 mM DTT, citrate/phosphate buffer, pH optimum 6, 28 °C
[5] = molecular target: T3, yrEnCB (EnCB, E. nipponicum cathepsin B) (Eudiplozoon nipponicum, UniProt A0A2P1FSY4); assay: fluorogenic AMC release; conditions: 50 uM substrate, 2 mM DTT, citrate/phosphate buffer, pH optimum 5, 28 °C
T3 construct: Pichia pastoris X-33 (pPICZalpha B), His-tag; self-processed, deglycosylated with endoglycosidase F1, ~29 kDa; full transcript 382 residues
T3 sequence (A0A2P1FSY4 entry or part of it): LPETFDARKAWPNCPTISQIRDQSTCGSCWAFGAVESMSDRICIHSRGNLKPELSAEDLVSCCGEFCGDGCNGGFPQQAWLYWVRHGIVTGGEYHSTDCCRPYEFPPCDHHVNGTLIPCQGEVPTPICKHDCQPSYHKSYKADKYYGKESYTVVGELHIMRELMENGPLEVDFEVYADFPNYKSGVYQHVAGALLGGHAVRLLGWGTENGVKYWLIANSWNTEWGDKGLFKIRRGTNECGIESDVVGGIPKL

CCCNC(=O)[C@H]1O[C@@H]1C(=O)N[C@H](C(=O)N1CCC[C@H]1C(=O)O)[C@@H](C)CC [CA-074, N-[L-3-trans-propylcarbamoyloxirane-2-carbonyl]-Ile-Pro-OH]
remaining activity at 10 µM [1]: 45 to 65% | remaining activity at 10 µM [2]: ~70%

Cc1cc(=O)oc2cc(NC(=O)[C@H](CCCNC(=N)N)NC(=O)[C@H](CC(C)C)NC(=O)OCc3ccccc3)ccc12 [Z-Leu-Arg-AMC]
fluorogenic AMC release [3]: Both EnCLs efficiently hydrolysed the FR substrate, and to a lesser extent the LR | fluorogenic AMC release [4]: Both EnCLs efficiently hydrolysed the FR substrate, and to a lesser extent the LR

Cc1cc(=O)oc2cc(NC(=O)[C@H](CCCNC(=N)N)NC(=O)[C@H](Cc3ccccc3)NC(=O)OCc3ccccc3)ccc12 [Z-Phe-Arg-AMC] (Cbz-Phe-Arg-{AMC})
fluorogenic AMC release [3]: Both EnCLs efficiently hydrolysed the FR substrate, and to a lesser extent the LR | fluorogenic AMC release [5]: The preferred substrate for yrEnCB was the FR, while RR was cleaved less efficiently | fluorogenic AMC release [4]: Both EnCLs efficiently hydrolysed the FR substrate, and to a lesser extent the LR

RKLLW-NH2 [iCL]
remaining activity at 10 µM [1]: ~40%

Source: PMC5840727, “Cysteine peptidases of Eudiplozoon nipponicum: a broad repertoire of structurally assorted cathepsins L in contrast to the scarcity of cathepsins B in an invasive species of haematophagous monogenean of common carp” (Parasites & Vectors, 2018)
